Assay results reported in patent US4812393A, “Fluorescent dyes and biological and analytical uses thereof” (priority 1986, dated 1989).

Tests used:
[1] = Fluorescence emission maximum and fluorescence quantum efficiency of the dyes; type: physicochemical
Procedure: Representative novel dyes of this invention are listed in Table I below in reference to the illustrated structure above. Of these, Compound 4 is preferred for use in biological studies and assays because it can be used at a pH of 7 or less. In Table I, the "fluorescence quantum efficiency" was determined by procedures described by Birks in Standardization in Spectrophotometry and Luminescence Measurements, Mielenz et al (Eds.), Nat. Bureau of Standards Special Publication 466 (1977).

[2] = tested on: carboxyl esterase, Type I; test: Determination of an esterase enzyme by hydrolysis of the hydrolyzable substrate (fluorometer); type: biochemical; settings: final enzyme activity 48 I.U., HEPES pH 7.8, excitation 540 nm, emission 610 nm
Procedure: The hydrolyzable compound used is represented by the structure: [drawing 11]
A test solution was prepared from the following: the hydrolyzable substrate (50 μl of a solution of 0.1 mg/0.5 ml of methanol), 0.05 molar HEPES buffer (3 μl, pH 7.8) and the esterase enzyme carboxyl esterase, Type I (50 μl). A Control solution was similarly prepared by omitting the enzyme. Fluorescence of the released fluorescent dye was measured with a commercially available fluorometer when the enzyme was first added to the test solution and at various times thereafter (excitation at 540 nm and emission at 610 nm). The Control solution was similarly evaluated at the indicated times.

Row | SMILES | Emission (λmax) ([1]; in methanol) | Fluorescence Quantum Efficiency ([1]; in methanol) | Emission (λmax) ([1]; in 5:1 water/methanol) | Fluorescence Quantum Efficiency ([1]; solvent in 5:1 water/methanol) | also measured
1 | Cc1cc(O)cc2c1cc1c3c(cccc32)C(=O)C=C1 [Compound 1] | 542 nm | 0.4 |  |  | 
2 | Cc1cc(O)cc2c1cc1c3c(cccc32)C(=O)C=C1 [Compound 2] |  |  | 635 nm | 0.18 | 
3 | Cc1cc(O)c(Cl)c2c1cc1c3c(cccc32)C(=O)C=C1 [Compound 3] | 629 nm | 0.55 |  |  | 
4 | Cc1cc(O)c(Cl)c2c1cc1c3c(cccc32)C(=O)C=C1 [Compound 4] |  |  | 628 nm | 0.42 | 
5 | Cc1cc(OC(=O)N(C)c2ccccc2)c(Cl)c2c1cc1c3c(cccc32)C(=O)C=C1 [Compound 5] |  |  | 550 nm | 0.01 | 
6 | Cc1cc(N2CCCC2)cc2c1cc1c3c(cccc32)C(=O)C=C1 [Compound 6] | 655 nm | 0.52 |  |  | 
7 | CCCCOC(=O)c1cc(O)cc2c1cc1c3c(cccc32)C(=O)C=C1 [Compound 7] | 525 nm | 0.4 |  |  | 
8 | CCCCOC(=O)c1cc(O)cc2c1cc1c3c(cccc32)C(=O)C=C1 [Compound 8] |  |  | 630 nm | 0.3 | 
9 | CCCCOC(=O)c1cc(O)c(Cl)c2c1cc1c3c(cccc32)C(=O)C=C1 [Compound 9] |  |  | 625 nm | 0.56 | 
10 | CC(=O)Oc1cc(C)c2cc3c4c(cccc4c2c1Cl)C(=O)C=C3 [Example 6] |  |  |  |  | Δ Relative Fluorescence (Minutes) 0 ([2]; 0 minutes): 8.1; Δ Relative Fluorescence (Minutes) 1 ([2]; 1 minute): 31.5; Δ Relative Fluorescence (Minutes) 2 ([2]; 2 minutes): 32.1; Δ Relative Fluorescence (Minutes) 5 ([2]; 5 minutes): 33.3
